Read-outs that look alike come from different tables or passages of the source. Where a SMILES comes first, the peptide text is derived from it. Bridges are numbered along the chain shown (N, C = ends). [ ]: non-standard residue; d: D form. The star is where a group is joined. DOTA = O=C(O)CN1CCN(CC(=O)O)CCN(CC(=O)*)CCN(CC(=O)O)CC1; Pro(trans-4-F) = O=C(O)[C@@H]1C[C@@H](F)CN1; Phe(4-Cl) = N[C@@H](Cc1ccc(Cl)cc1)C(=O)O; Pro(cis-4-F) = O=C(O)[C@@H]1C[C@H](F)CN1; Phe(4-NH2) = Nc1ccc(C[C@H](N)C(=O)O)cc1; Hyp = O=C(O)[C@@H]1C[C@@H](O)CN1; hPhe = N[C@@H](CCc1ccccc1)C(=O)O; 3Pal = N[C@@H](Cc1cccnc1)C(=O)O; NMeE = CN[C@@H](CCC(=O)O)C(=O)O; Pentanoyl(4-Me) = CC(C)CCC(=O)*; Cit = NC(=O)NCCC[C@H](N)C(=O)O; Butoxycarbonyl = CCCCOC(=O)*; Aze = O=C(O)[C@@H]1CCN1; Nva = CCC[C@H](N)C(=O)O; Hexanoyl = CCCCCC(=O)*; Pentanoyl = CCCCC(=O)*
Assays:
human uPAR (uPAR-Fc) = biological target: T1, human uPAR (uPAR-Fc) (Homo sapiens, UniProt Q03405); assay: Surface plasmon resonance (SPR) assay, single cycle kinetics; assay type: binding; conditions: pKD category for uPAR SPR activity assay, uPAR-Fc on Protein A-Chip, 25°C; for Kd: read-out: pKD CAT (converted)
T1 construct: comprising amino acids Leu23-Arg303 according to UniProt entry Q03405.1; purchased R&D Systems 10378-UK-100
Outline: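 uPAR-Fc (Leu23-Arg303 extracellular domains, human IgG1 Fc) captured on Protein A chip to ~2000 RU; single-cycle kinetics at 25°C in HEPES running buffer pH 7.4 with 0.1% DMSO. KD from double-referenced sensorgrams fitted to 1:1 Langmuir model, reported as pKD.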

[1] = biological target: T2, uPAR-expressing HEC-265 human endometrial adenocarcinoma cells (Homo sapiens, UniProt Q03405); assay: Competitive FACS binding assay; conditions: pIC50 category of FACS binding
T2 construct: Cell surface uPAR-expressing HEC-265 human endometrial adenocarcinoma cells; host or cells: HEC-265
Outline: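 Competitive displacement of a 10 nM biotinylated peptide from HEC-265 cells (1 h, 4 °C, PBS/1% BSA), detected via APC-streptavidin by flow cytometry. pIC50 from four-parameter logistic fit of median fluorescence versus concentration.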

T1 sequence (Q03405 23-303): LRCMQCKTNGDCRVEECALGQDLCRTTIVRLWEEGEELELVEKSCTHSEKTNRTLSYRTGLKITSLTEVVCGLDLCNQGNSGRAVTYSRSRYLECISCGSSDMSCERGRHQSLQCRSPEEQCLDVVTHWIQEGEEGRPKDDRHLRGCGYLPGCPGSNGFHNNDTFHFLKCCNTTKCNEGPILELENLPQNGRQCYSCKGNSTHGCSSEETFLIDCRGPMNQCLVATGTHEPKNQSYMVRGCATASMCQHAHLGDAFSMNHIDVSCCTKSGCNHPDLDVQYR
T2 sequence (Q03405 23-335): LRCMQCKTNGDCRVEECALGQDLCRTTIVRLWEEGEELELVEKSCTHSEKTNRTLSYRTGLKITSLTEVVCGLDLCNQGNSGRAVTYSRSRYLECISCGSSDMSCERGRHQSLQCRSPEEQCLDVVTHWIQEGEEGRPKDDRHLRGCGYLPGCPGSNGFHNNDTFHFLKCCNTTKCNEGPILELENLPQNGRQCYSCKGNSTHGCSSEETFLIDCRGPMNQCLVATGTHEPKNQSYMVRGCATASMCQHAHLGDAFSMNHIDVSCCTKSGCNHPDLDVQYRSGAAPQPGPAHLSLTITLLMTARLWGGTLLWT

CCCCC(=O)N[C@H]1CSSC[C@@H](C(N)=O)NC(=O)[C@H](CCC)NC(=O)[C@H]([C@@H](C)CC)NC(=O)[C@@H]2C[C@@H](O)CN2C(=O)[C@@H]2CCCN2C(=O)[C@H](CC(C)C)NC(=O)[C@H](Cc2ccc(O)cc2)NC(=O)[C@H](CCC(N)=O)NC(=O)[C@H](CCCNC(=N)N)NC1=O [UPAR-197, Pent-[Cys-Arg-Gln-Tyr-Leu-Pro-Hyp-Ile-Nva-Cys]-NH2] (Pentanoyl-CRQYLP[Hyp]I[Nva]C-NH2; disulfide 1-10)
Kd (human uPAR (uPAR-Fc)): 0.00158 to 0.01 µM
IC50 [1]: 0.0126 to 0.0316 µM

CCCCC(=O)N[C@H]1CSSC[C@@H](C(N)=O)NC(=O)[C@H](CCC)NC(=O)[C@H](Cc2ccc(Cl)cc2)NC(=O)[C@@H]2C[C@@H](O)CN2C(=O)[C@@H]2CCCN2C(=O)[C@H](Cc2ccccc2)NC(=O)[C@H](Cc2ccc(O)cc2)NC(=O)[C@H](CCC(N)=O)NC(=O)[C@H](CCCNC(=N)N)NC1=O [UPAR-204, Pent-[Cys-Arg-Gln-Tyr-Phe-Pro-Hyp-Pcf-Nva-Cys]-NH2] (Pentanoyl-CRQYFP[Hyp][Phe(4-Cl)][Nva]C-NH2; disulfide 1-10)
Kd (human uPAR (uPAR-Fc)): < 0.00158 µM
IC50 [1]: ≤ 0.01 µM

CCCCOC(=O)N[C@H]1CSSC[C@@H](C(N)=O)NC(=O)[C@H](CC(C)C)NC(=O)[C@H]([C@@H](C)CC)NC(=O)[C@@H](C)NC(=O)[C@@H]2CCCN2C(=O)[C@H](Cc2ccccc2)NC(=O)[C@H](Cc2ccc(O)cc2)NC(=O)[C@H](CCC(N)=O)NC(=O)[C@H](CCCNC(N)=O)NC1=O [UPAR-155, Butoc-[Cys-Cit-Gln-Tyr-Phe-Pro-ala-Ile-Leu-Cys]-NH2] (Butoxycarbonyl-C[Cit]QYFP[dA]ILC-NH2; disulfide 1-10)
Kd (human uPAR (uPAR-Fc)): < 0.00158 µM
IC50 [1]: ≤ 0.01 µM

CC[C@H](C)[C@@H]1NC(=O)[C@@H]2CCN2C(=O)[C@@H]2CCCN2C(=O)[C@H](Cc2ccccc2)NC(=O)[C@H](Cc2ccc(O)cc2)NC(=O)[C@H](CCC(N)=O)NC(=O)[C@H](CCCNC(N)=O)NC(=O)[C@@H](NC(=O)CCC(C)C)CSSC[C@@H](C(N)=O)NC(=O)[C@H](CC(C)C)NC1=O [UPAR-446, iHex-[Cys-Cit-Gln-Tyr-Phe-Pro-Aze-Ile-Leu-Cys]-NH2] ({Pentanoyl(4-Me)}-C[Cit]QYFP[Aze]ILC-NH2; disulfide 1-10)
Kd (human uPAR (uPAR-Fc); single cycle kinetics): < 0.00158 µM
IC50 [1]: ≤ 0.01 µM

CC[C@H](C)[C@@H]1NC(=O)[C@@H](C)NC(=O)[C@@H]2CCCN2C(=O)[C@H](Cc2ccccc2)NC(=O)[C@H](Cc2ccc(O)cc2)NC(=O)[C@H](CCCCNC(C)=O)NC(=O)[C@H](CCCNC(N)=O)NC(=O)[C@@H](NC(=O)CCC(C)C)CSSC[C@@H](C(N)=O)NC(=O)[C@H](CC(C)C)NC1=O [UPAR-413, iHex-[Cys-Cit-Lys(Ac)-Tyr-Phe-Pro-ala-Ile-Leu-Cys]-NH2] ({Pentanoyl(4-Me)}-C[Cit]K(Ac)YFP[dA]ILC-NH2; disulfide 1-10)
Kd (human uPAR (uPAR-Fc); single cycle kinetics): < 0.00158 µM
IC50 [1]: ≤ 0.01 µM

CCCCCC(=O)N[C@H](C(=O)N[C@@H](CC(C)C)C(=O)N[C@H]1CSSC[C@@H](C(N)=O)NC(=O)[C@H](CC(C)C)NC(=O)[C@H]([C@@H](C)CC)NC(=O)[C@H](C)NC(=O)[C@@H]2CCCN2C(=O)[C@H](Cc2ccccc2)NC(=O)[C@H](Cc2ccc(O)cc2)NC(=O)[C@H](CC(C)C)NC(=O)[C@H](CC(=O)O)NC1=O)[C@@H](C)O [UPAR-318, Hex-Thr-Leu-[Cys-Asp-Leu-Tyr-Phe-Pro-Ala-Ile-Leu-Cys]-NH2] (Hexanoyl-TLCDLYFPAILC-NH2; disulfide 3-12)
Kd (human uPAR (uPAR-Fc)): < 0.00158 µM
IC50 [1]: ≤ 0.01 µM

CCC[C@@H]1NC(=O)[C@H]([C@@H](C)CC)NC(=O)[C@@H]2C[C@@H](O)CN2C(=O)[C@@H]2CCCN2C(=O)[C@H](Cc2ccccc2)NC(=O)[C@H](Cc2ccc(O)cc2)NC(=O)[C@H](CCC(N)=O)NC(=O)[C@H](CCCNC(=N)N)NC(=O)[C@@H](NC(=O)[C@H](CCc2ccccc2)NC(C)=O)CSSC[C@@H](C(N)=O)NC1=O [UPAR-484, Ac-Hfe-[Cys-Arg-Gln-Tyr-Phe-Pro-Hyp-Ile-Nva-Cys]-NH2] (Ac-[hPhe]CRQYFP[Hyp]I[Nva]C-NH2; disulfide 2-11)
Kd (human uPAR (uPAR-Fc); single cycle kinetics): 0.00158 to 0.01 µM
IC50 [1]: ≤ 0.01 µM

Pent-[Cys-Cit-Lys(LuDOTA)-Nif-Phe-Pro-Hyp-Ile-Nva-Cys]-NH2 [UPAR-352]
pKD CAT (human uPAR (uPAR-Fc); single cycle kinetics): A (pKD values ≥ 8.8)
pIC50 CAT [1]: A (pIC50 values ≥8.0)

CC[C@H](C)[C@@H]1NC(=O)[C@H](C)NC(=O)[C@@H]2CCCN2C(=O)[C@H](Cc2ccccc2)NC(=O)[C@H](Cc2ccc(O)cc2)NC(=O)[C@H](CCC(N)=O)NC(=O)[C@H](CCCNC(=N)N)NC(=O)[C@@H](NC(=O)[C@H](CC(C)C)NC(=O)[C@H](CC(=O)O)NC(C)=O)CSSC[C@@H](C(N)=O)NC(=O)[C@H](CC(C)C)NC1=O [UPAR-290, Ac-Asp-Leu-[Cys-Arg-Gln-Tyr-Phe-Pro-Ala-Ile-Leu-Cys]-NH2] (Ac-DLCRQYFPAILC-NH2; disulfide 3-12)
Kd (human uPAR (uPAR-Fc)): < 0.00158 µM
IC50 [1]: ≤ 0.01 µM

CCCCC(=O)N[C@H]1CSSC[C@@H](C(N)=O)NC(=O)[C@H](CCC)NC(=O)[C@H]([C@@H](C)CC)NC(=O)[C@@H]2C[C@@H](O)CN2C(=O)[C@@H]2CCCN2C(=O)[C@H](Cc2ccccc2)NC(=O)[C@H](Cc2ccc(O)cc2)NC(=O)[C@H](CCCCNC(=O)CN2CCN(CC(=O)O)CCN(CC(=O)O)CCN(CC(=O)O)CC2)NC(=O)[C@H](CCC(=O)O)NC1=O [UPAR-471, Pent-[Cys-Glu-Lys(DOTA)-Tyr-Phe-Pro-Hyp-Ile-Nva-Cys]-NH2] (Pentanoyl-CEK(DOTA)YFP[Hyp]I[Nva]C-NH2; disulfide 1-10)
Kd (human uPAR (uPAR-Fc); single cycle kinetics): < 0.00158 µM
IC50 [1]: ≤ 0.01 µM

CC[C@H](C)[C@@H]1NC(=O)[C@@H](C)NC(=O)[C@@H]2CCCN2C(=O)[C@H](Cc2ccccc2)NC(=O)[C@H](Cc2ccc(O)cc2)NC(=O)[C@H](CCC(N)=O)NC(=O)[C@@H](CCCCNC(=O)CN2CCN(CC(=O)O)CCN(CC(=O)O)CCN(CC(=O)O)CC2)NC(=O)[C@@H](NC(=O)CCC(C)C)CSSC[C@@H](C(N)=O)NC(=O)[C@H](CC(C)C)NC1=O [UPAR-130, iHex-[Cys-lys(DOTA)-Gln-Tyr-Phe-Pro-ala-Ile-Leu-Cys]-NH2] ({Pentanoyl(4-Me)}-C[dK](DOTA)QYFP[dA]ILC-NH2; disulfide 1-10)
Kd (human uPAR (uPAR-Fc)): > 0.1 µM
IC50 [1]: ≥ 0.126 µM

CC[C@H](C)[C@@H]1NC(=O)[C@@H](C)NC(=O)[C@@H]2CCCN2C(=O)[C@H](Cc2ccccc2)NC(=O)[C@H](Cc2cccnc2)NC(=O)[C@H](CCC(N)=O)NC(=O)[C@H](CCCNC(N)=O)NC(=O)[C@@H](NC(=O)CCC(C)C)CSSC[C@@H](C(N)=O)NC(=O)[C@H](CC(C)C)NC1=O [UPAR-393, iHex-[Cys-Cit-Gln-Mpa-Phe-Pro-ala-Ile-Leu-Cys]-NH2] ({Pentanoyl(4-Me)}-C[Cit]Q[3Pal]FP[dA]ILC-NH2; disulfide 1-10)
Kd (human uPAR (uPAR-Fc); single cycle kinetics): < 0.00158 µM
IC50 [1]: ≤ 0.01 µM

CC[C@H](C)[C@@H]1NC(=O)[C@@H](C)NC(=O)[C@@H]2CCCN2C(=O)[C@H](Cc2ccccc2)NC(=O)[C@H](Cc2ccc(N)cc2)NC(=O)[C@H](CCC(N)=O)NC(=O)[C@H](CCCNC(N)=O)NC(=O)[C@@H](NC(=O)CCC(C)C)CSSC[C@@H](C(N)=O)NC(=O)[C@H](CC(C)C)NC1=O [UPAR-314, iHex-[Cys-Cit-Gln-Aph-Phe-Pro-ala-Ile-Leu-Cys]-NH2] ({Pentanoyl(4-Me)}-C[Cit]Q[Phe(4-NH2)]FP[dA]ILC-NH2; disulfide 1-10)
Kd (human uPAR (uPAR-Fc)): < 0.00158 µM
IC50 [1]: ≤ 0.01 µM

CCCCC(=O)N[C@H]1CSSC[C@@H](C(N)=O)NC(=O)[C@H](CCC)NC(=O)[C@H]([C@@H](C)CC)NC(=O)[C@H](CCC(=O)O)N(C)C(=O)[C@@H]2CCCN2C(=O)[C@H](Cc2ccccc2)NC(=O)[C@H](Cc2ccc(O)cc2)NC(=O)[C@H](CCCCNC(=O)CN2CCN(CC(=O)O)CCN(CC(=O)O)CCN(CC(=O)O)CC2)NC(=O)[C@H](CCCNC(N)=O)NC1=O [UPAR-327, Pent-[Cys-Cit-Lys(DOTA)-Tyr-Phe-Pro-Nme-Ile-Nva-Cys]-NH2] (Pentanoyl-C[Cit]K(DOTA)YFP[NMeE]I[Nva]C-NH2; disulfide 1-10)
Kd (human uPAR (uPAR-Fc)): > 0.1 µM
IC50 [1]: ≥ 0.126 µM

CCCCOC(=O)N[C@H]1CSSC[C@@H](C(N)=O)NC(=O)[C@H](CCC)NC(=O)[C@H]([C@@H](C)CC)NC(=O)[C@@H]2C[C@@H](F)CN2C(=O)[C@@H]2CCCN2C(=O)[C@H](Cc2ccccc2)NC(=O)[C@H](Cc2ccc(O)cc2)NC(=O)[C@H](CCCCNC(=O)CN2CCN(CC(=O)O)CCN(CC(=O)O)CCN(CC(=O)O)CC2)NC(=O)[C@H]([C@@H](C)O)NC1=O [UPAR-289, Butoc-[Cys-Thr-Lys(DOTA)-Tyr-Phe-Pro-4Tfp-Ile-Nva-Cys]-NH2] (Butoxycarbonyl-CTK(DOTA)YFP[Pro(trans-4-F)]I[Nva]C-NH2; disulfide 1-10)
Kd (human uPAR (uPAR-Fc)): < 0.00158 µM
IC50 [1]: ≤ 0.01 µM

CCCCOC(=O)N[C@H]1CSSC[C@@H](C(N)=O)NC(=O)[C@H](CCC)NC(=O)[C@H]([C@@H](C)CC)NC(=O)[C@@H]2C[C@@H](O)CN2C(=O)[C@@H]2C[C@H](F)CN2C(=O)[C@H](Cc2ccc(Cl)cc2)NC(=O)[C@H](Cc2ccc(O)cc2)NC(=O)[C@H](CCCCNC(=O)CN2CCN(CC(=O)O)CCN(CC(=O)O)CCN(CC(=O)O)CC2)NC(=O)[C@H](CCCNC(N)=O)NC1=O [UPAR-304, Butoc-[Cys-Cit-Lys(DOTA)-Tyr-Pcf-4Cfp-Hyp-Ile-Nva-Cys]-NH2] (Butoxycarbonyl-C[Cit]K(DOTA)Y[Phe(4-Cl)][Pro(cis-4-F)][Hyp]I[Nva]C-NH2; disulfide 1-10)
Kd (human uPAR (uPAR-Fc)): < 0.00158 µM
IC50 [1]: ≤ 0.01 µM
